“And” between values parts separate entries of the source, which are not always exact repeats. Identical values can stand only once. Results filed as inconclusive are left out.
Tested on: BDF1 mice, colon carcinoma 38 sc, T/C %
Assay: NCI In Vivo Anticancer Drug Screen. Data for tumor model Colon Carcinoma 38 (subcutaneous) in B6D2F1 (BDF1) mice
Settings: endpoint: median tumor weight (est.), higher = larger tumour
Procedure: The antitumor activity of compounds was measured in mice bearing transplantable tumors. Survival or tumor size were measured and the results are expressed as the measurement made in the treated group (T) divided by the measurement made in the vehicle treated control group (C). The tumor model used in this assay is Colon Carcinoma 38 (subcutaneous) in B6D2F1 (BDF1) mice

[1] = dose: 50.0 mg/kg/injection, schedule: Q07DX002 (ip), vehicle: saline with Tween-80
[2] = dose: 25.0 mg/kg/injection, schedule: Q07DX002 (ip), vehicle: Klucel (hydroxypropylcellulose) (HPC)
[3] = dose: 100.0 mg/kg/injection, schedule: Q07DX002 (ip), vehicle: Klucel (hydroxypropylcellulose) (HPC)
[4] = dose: 200.0 mg/kg/injection, schedule: Q07DX002 (ip), vehicle: Klucel (hydroxypropylcellulose) (HPC)
[5] = dose: 400.0 mg/kg/injection, schedule: Q07DX002 (ip), vehicle: Klucel (hydroxypropylcellulose) (HPC)

In the case of `CCC(C)C(=O)O[C@H]1C(=O)O[C@@H]2C[C@H]3C(C)=CC(=O)[C@@H](O)[C@]3(C)[C@H]3[C@@H](O)[C@H](O)[C@@]4(C)OC[C@]32[C@@H]14` (some centres undefined), the T/C (dose: 1.25 mg/kg/injection, schedule: Q07DX002 (ip), vehicle: saline + alcohol) is reported as 45 % of control and the T/C (dose: 5.0 mg/kg/injection, schedule: Q07DX002 (ip), vehicle: saline + alcohol) is reported as 27 % of control and 50 % of control.
In the case of `CC[C@H](CC[C@@H](C)C1CC[C@H]2[C@@H]3CC=C4C[C@@H](OP(=O)(N5CC5)N5CC5)CC[C@]4(C)[C@H]3CC[C@]12C)C(C)C` (some centres undefined), the T/C [1] is reported as 95 % of control, the T/C (dose: 200.0 mg/kg/injection, schedule: Q07DX002 (ip), vehicle: saline with Tween-80) is reported as 79 % of control and the T/C (dose: 400.0 mg/kg/injection, schedule: Q07DX002 (ip), vehicle: saline with Tween-80) is reported as 92 % of control.
`COc1ccc(C(=O)c2no[n+]([O-])c2C(=O)c2ccc(OC)cc2)cc1` was tested, and the T/C (dose: 12.5 mg/kg/injection, schedule: Q07DX002 (ip), vehicle: saline with Tween-80) was 107 % of control and the T/C [1] was 99 % of control and 106 % of control.
For `C1CNCOC1`, the T/C (dose: 25.0 mg/kg/injection, schedule: Q07DX002 (ip), vehicle: saline) was 108 % of control and the T/C (dose: 100.0 mg/kg/injection, schedule: Q07DX002 (ip), vehicle: saline) was 115 % of control.
In the case of `Cc1ncc([N+](=O)[O-])n1CCSC(N)=O`, the T/C (dose: 12.5 mg/kg/injection, schedule: Q07DX003 (ip), vehicle: saline with Tween-80) is reported as 111 % of control, the T/C (dose: 25.0 mg/kg/injection, schedule: Q07DX003 (ip), vehicle: saline with Tween-80) is reported as 164 % of control and the T/C (dose: 100.0 mg/kg/injection, schedule: Q07DX003 (ip), vehicle: saline with Tween-80) is reported as 108 % of control.
For `ClC1=C(Cl)C2(Cl)C3C(Cl)C(Cl)CC3C1(Cl)C2(Cl)Cl` (centres undefined), the T/C (dose: 9.5 mg/kg/injection, schedule: Q07DX002 (ip), vehicle: saline with Tween-80) was 103 % of control, the T/C (dose: 19.0 mg/kg/injection, schedule: Q07DX002 (ip), vehicle: saline with Tween-80) was 114 % of control and the T/C (dose: 28.0 mg/kg/injection, schedule: Q07DX002 (ip), vehicle: saline + Tween-80 + alcohol) was 102 % of control. For the same molecule, the T/C (dose: 28.0 mg/kg/injection, schedule: Q07DX002 (ip), vehicle: saline with Tween-80) was 100 % of control, the T/C (dose: 50.0 mg/kg/injection, schedule: Q07DX002 (ip), vehicle: other) was 63 % of control and 86 % of control and the T/C (dose: 56.0 mg/kg/injection, schedule: Q07DX002 (ip), vehicle: saline + Tween-80 + alcohol) was 86 % of control. For the same molecule, the T/C (dose: 56.0 mg/kg/injection, schedule: Q07DX002 (ip), vehicle: saline with Tween-80) was 92 % of control and 93 % of control, the T/C (dose: 100.0 mg/kg/injection, schedule: Q07DX002 (ip), vehicle: other) was 84 % of control and the T/C (dose: 112.0 mg/kg/injection, schedule: Q07DX002 (ip), vehicle: saline with Tween-80) was 100 % of control.
`Ic1ncnc2c1ncn2C1CCCO1` (centres undefined) was tested, and the T/C (dose: 12.5 mg/kg/injection, schedule: Q07DX002 (ip), vehicle: Klucel (hydroxypropylcellulose) (HPC)) was 68 % of control and 70 % of control, the T/C [2] was 52 % of control and 68 % of control and the T/C [3] was 56 % of control and 80 % of control. For the same molecule, the T/C [4] was 81 % of control and the T/C [5] was 55 % of control.
In the case of `C=CC(C)(C)n1cc(C2=C(O)C(=O)C(c3cn(C(C)(C)C=C)c4ccccc34)=C(O)C2=O)c2ccccc21`, the T/C (dose: 5.0 mg/kg/injection, schedule: Q07DX002 (ip), vehicle: Klucel (hydroxypropylcellulose) (HPC)) is reported as 67 % of control and 79 % of control, the T/C (dose: 10.0 mg/kg/injection, schedule: Q07DX002 (ip), vehicle: Klucel (hydroxypropylcellulose) (HPC)) is reported as 66 % of control and 82 % of control and the T/C (dose: 20.0 mg/kg/injection, schedule: Q07DX002 (ip), vehicle: DMSO) is reported as 87 % of control. The T/C (dose: 40.0 mg/kg/injection, schedule: Q07DX002 (ip), vehicle: DMSO) was 101 % of control, the T/C (dose: 80.0 mg/kg/injection, schedule: Q07DX002 (ip), vehicle: DMSO) was 41 % of control and the T/C (dose: 80.0 mg/kg/injection, schedule: Q07DX002 (ip), vehicle: Klucel (hydroxypropylcellulose) (HPC)) was 79 % of control and 81 % of control. The T/C (dose: 160.0 mg/kg/injection, schedule: Q07DX002 (ip), vehicle: Klucel (hydroxypropylcellulose) (HPC)) was 57 % of control and 70 % of control.
With `C=C1C(=O)OC2/C=C(\CO)C(OC(C)=O)CC(O)/C(C)=C/C(OC(=O)C(C)CC)C12` (centres undefined) the T/C [3] was 165 % of control, the T/C [4] was 95 % of control and the T/C [5] was 178 % of control.
`C=C[Si]12OCCN(CCO1)CCO2` was tested, and the T/C [2] was 73 % of control and 90 % of control, the T/C [3] was 29 % of control and the T/C [4] was 93 % of control and 97 % of control.

Source: PubChem BioAssay AID212 (DTP/NCI, 2004)
